In one experiment the test system is HCT-8. The experiment can be described thus: Cytotoxicity against human HCT-8 cells assessed as cell growth inhibition by MTT assay. The format is functional, cell-based.
Another experiment deals with HeLa. As to the kind of experiment: Cytotoxicity against human HeLa cells assessed as cell growth inhibition by MTT assay. The format is functional, cell-based.
A further experiment concerns A549. The experiment can be described thus: Cytotoxicity against human A549 cells assessed as cell growth inhibition by MTT assay. The class given is functional, cell-based.
For the next experiment, the system named is P388. The experiment can be described thus: Cytotoxicity against mouse P388 cells assessed as cell growth inhibition by MTT assay. The class given is functional, cell-based.
A further experiment deals with HL-60. The experiment can be described thus: Cytotoxicity against human HL-60 cells assessed as cell growth inhibition by MTT assay. The format is functional, cell-based.
Experiment [1] has as its system MCF7. The experiment can be described thus: Cytotoxicity against human MCF7 cells assessed as cell growth inhibition by MTT assay. The format is functional, cell-based.
The test system of a further experiment is A-375. As to the kind of experiment: Cytotoxicity against human A-375 cells assessed as cell growth inhibition by MTT assay. The class given is functional, cell-based.
Experiment [2] can be described thus: Selectivity ratio of IC50 for cytotoxicity against human HeLa cells under hypoxic condition to IC50 for cytotoxicity against human HeLa cells under aerobic condition. The format is functional.
A further experiment deals with Mus musculus. The experiment can be described thus: Antitumor activity against mouse H22 cells xenografted in Kunming mouse assessed as decrease in tumor growth at 5 mg/kg administered as single injection via caudal vein for 7 consecutive days. The class given is functional. More on the design: scale not given: the % may be the effect or the level left.
Experiment [3] has as its system HCT-116. As to the kind of experiment: Cytotoxicity against human HCT-116 cells assessed as inhibition of cell growth incubated for 24 hrs by XTT assay. The following applies: HCT-116, 24 h. The format is functional, cell-based.
The next experiment relates to PANC-1. The experiment can be described thus: Cytotoxicity against human PANC-1 cells assessed as inhibition of cell growth incubated for 24 hrs by XTT assay. The format is functional, cell-based. The following applies: PANC-1, 24 h.
The subject of another experiment is MDA-MB-231. The experiment can be described thus: Cytotoxicity against human MDA-MB-231 cells assessed as cell growth inhibition incubated for 48 hrs by sulforhodamine B reagent assay. The class given is functional, cell-based. The following applies: MDA-MB-231, 48 h.
The next experiment concerns T47D. As to the kind of experiment: Cytotoxicity against human T47D cells assessed as cell growth inhibition incubated for 48 hrs by sulforhodamine B reagent assay. The class given is functional, cell-based.
In the next experiment the test system is DU-145. As to the kind of experiment: Cytotoxicity against human DU-145 cells assessed as cell growth inhibition incubated for 48 hrs by sulforhodamine B reagent assay. The format is functional, cell-based. The following applies: DU-145, 48 h.
In a further experiment the test system is SW-620. The experiment can be described thus: Cytotoxicity against human SW620 cells assessed as cell growth inhibition incubated for 48 hrs by sulforhodamine B reagent assay. The settings on record: SW-620, 48 h. The format is functional, cell-based.
The subject of a further experiment is U-251. As to the kind of experiment: Cytotoxicity against human U-251 cells assessed as cell growth inhibition incubated for 48 hrs by sulforhodamine B reagent assay. The class given is functional, cell-based. The settings on record: U-251, 48 h.
Another experiment relates to EKVX. The experiment can be described thus: Cytotoxicity against human EKVX cells assessed as cell growth inhibition incubated for 48 hrs by sulforhodamine B reagent assay. The class given is functional, cell-based.
For the next experiment, the system named is OVCAR-4. As to the kind of experiment: Cytotoxicity against human OVCAR-4 cells assessed as cell growth inhibition incubated for 48 hrs by sulforhodamine B reagent assay. The format is functional, cell-based. The settings on record: OVCAR-4, 48 h.
The subject of a further experiment is RXF 393. The experiment can be described thus: Cytotoxicity against human RXF 393 cells assessed as cell growth inhibition incubated for 48 hrs by sulforhodamine B reagent assay. The class given is functional, cell-based. The settings on record: RXF 393, 48 h.
Another experiment relates to SK-MEL-28. The experiment can be described thus: Cytotoxicity against human SK-MEL-28 cells assessed as cell growth inhibition incubated for 48 hrs by sulforhodamine B reagent assay. The settings on record: SK-MEL-28, 48 h. The format is functional, cell-based.
The test system of a further experiment is BT-549. The experiment can be described thus: Cytotoxicity against human BT-549 cells assessed as cell growth inhibition incubated for 48 hrs by sulforhodamine B reagent assay. The class given is functional, cell-based. The following applies: BT-549, 48 h.
Another experiment deals with Malme-3M. The experiment can be described thus: Cytotoxicity against human Malme-3M cells assessed as cell growth inhibition incubated for 48 hrs by sulforhodamine B reagent assay. The format is functional, cell-based.
A further experiment deals with SK-MEL-5. The experiment can be described thus: Cytotoxicity against human SK-MEL-5 cells assessed as cell growth inhibition incubated for 48 hrs by sulforhodamine B reagent assay. The format is functional, cell-based. The settings on record: SK-MEL-5, 48 h.
The next experiment has as its system 786-0. As to the kind of experiment: Cytotoxicity against human 786-0 cells assessed as cell growth inhibition incubated for 48 hrs by sulforhodamine B reagent assay. The class given is functional, cell-based. The following applies: 786-0, 48 h.
A further experiment relates to K562. The experiment can be described thus: Cytotoxicity against human K562 cells assessed as cell growth inhibition incubated for 48 hrs by sulforhodamine B reagent assay. The format is functional, cell-based. The following applies: K562, 48 h.
The next experiment relates to NCI-H322M. As to the kind of experiment: Cytotoxicity against human NCI-H322M cells assessed as cell growth inhibition incubated for 48 hrs by sulforhodamine B reagent assay. The class given is functional, cell-based.
A further experiment concerns SNB-75. As to the kind of experiment: Cytotoxicity against human SNB-75 cells assessed as cell growth inhibition incubated for 48 hrs by sulforhodamine B reagent assay. The class given is functional, cell-based. The following applies: SNB-75, 48 h.
The subject of the next experiment is KM12. As to the kind of experiment: Cytotoxicity against human KM12 cells assessed as cell growth inhibition incubated for 48 hrs by sulforhodamine B reagent assay. The class given is functional, cell-based. The following applies: KM12, 48 h.
Experiment [4] has as its system MCF7. As to the kind of experiment: Cytotoxicity against human MCF7 cells assessed as cell growth inhibition incubated for 48 hrs by sulforhodamine B reagent assay. The settings on record: MCF7, 48 h. The format is functional, cell-based.
The subject of a further experiment is SF-539. As to the kind of experiment: Cytotoxicity against human SF-539 cells assessed as cell growth inhibition incubated for 48 hrs by sulforhodamine B reagent assay. The format is functional, cell-based. The following applies: SF-539, 48 h.
The subject of experiment [5] is HCT-116. The experiment can be described thus: Cytotoxicity against human HCT-116 cells assessed as cell growth inhibition incubated for 48 hrs by sulforhodamine B reagent assay. The class given is functional, cell-based. The settings on record: HCT-116, 48 h.
The next experiment deals with Hs-578T. As to the kind of experiment: Cytotoxicity against human Hs-578T cells assessed as cell growth inhibition incubated for 48 hrs by sulforhodamine B reagent assay. The format is functional, cell-based.
In a further experiment the test system is Calf thymus DNA. As to the kind of experiment: Binding affinity to calf thymus DNA assessed as binding constant incubated for 10 mins by isothermal titration calorimetric assay. The settings on record: Bos taurus. The format is nucleic-acid assay.
The test system of another experiment is HepG2. As to the kind of experiment: Antiproliferative activity against human HepG2 cells assessed as inhibition of cell growth incubated for 48 hrs by MTT assay. The class given is functional, cell-based. The following applies: HepG2, 48 h.
A further experiment concerns H22. As to the kind of experiment: Antiproliferative activity against mouse H22 cells assessed as inhibition of cell growth incubated for 48 hrs by MTT assay. The format is functional, cell-based. The following applies: H22, 48 h.
Another experiment concerns SMMC-7721. As to the kind of experiment: Antiproliferative activity against human SMMC-7721 cells assessed as inhibition of cell growth incubated for 48 hrs by MTT assay. The format is functional, cell-based. The following applies: SMMC-7721, 48 h.
The subject of the next experiment is Bel-7402. The experiment can be described thus: Antiproliferative activity against human Bel-7402 cells assessed as inhibition of cell growth incubated for 48 hrs by MTT assay. The class given is functional, cell-based. The following applies: Bel-7402, 48 h.
The target in the next experiment is Salmon testes DNA. The experiment can be described thus: Binding affinity to salmon Testis DNA assessed as equilibrium binding constant by steady-state fluorescence spectroscopic analysis. The settings on record: Salmo salar.
The species named for experiment [6] is Homo sapiens. The experiment can be described thus: Binding affinity to double stranded [poly(dG-dC)2] DNA (unknown origin) assessed as equilibrium binding constant by steady-state fluorescence spectroscopic analysis.
The species entered for experiment [7] is Homo sapiens. The experiment can be described thus: Binding affinity to double stranded [poly(dA-dT)2] DNA (unknown origin) assessed as equilibrium binding constant by steady-state fluorescence spectroscopic analysis.

As to `COc1ccc2c(CC(=O)OCCN3C(=O)c4cccc5c(N(C)C)ccc(c45)C3=O)c(C)n(C(=O)c3ccc(Cl)cc3)c2c1`, the IC50 in the experiment with HCT-8, with HeLa, with A549, with P388, in the experiment on HL-60 and with MCF7 [1] was 13900 nM throughout. In addition, the IC50 in the experiment with A-375 was 13900 nM. The “Ratio IC50” value in experiment [2] was determined as 1.3.

Consider `CN(C)CCN1C(=O)c2cccc3cc(N)cc(c23)C1=O` [AMONAFIDE], for which, in the experiment on Mus musculus, the Activity came out at 43.73%. Moreover, the IC50 with HCT-116 [3] and in the experiment with PANC-1 was 2700 nM throughout.

For `O=C1c2cccc3cccc(c23)C(=O)N1CCCCOc1ccc(-c2nc3ccc(N4CCOCC4)cc3[nH]2)cc1`, the IC50 with MDA-MB-231, in the experiment on T47D, in the experiment with DU-145, in the experiment on SW-620, with U-251 and with EKVX was 110 nM in each case. Further, the IC50 in the experiment with OVCAR-4, with RXF 393, with SK-MEL-28, in the experiment with BT-549, with Malme-3M and with SK-MEL-5 was 110 nM throughout. For the same molecule, the IC50 with 786-0, with K562, in the experiment with NCI-H322M, with SNB-75, with KM12 and with MCF7 [4] was 110 nM in each case. In addition, the IC50 with SF-539, in the experiment with HCT-116 [5] and in the experiment with Hs-578T was 110 nM each time.

`C[n+]1ccn(CCN2C(=O)c3cc(Br)c4c5c(cc(Br)c(c35)C2=O)C(=O)N(CCn2cc[n+](C)c2)C4=O)c1`: in the experiment with Calf thymus DNA, the K was 9.53 10^6/M.

Consider `O=C1c2cccc3cc([N+](=O)[O-])cc(c23)C(=O)N1CCCCN(CCCl)CCCl`, for which the IC50 in the experiment on HepG2, in the experiment with H22, in the experiment with SMMC-7721 and in the experiment on Bel-7402 was 1900 nM in each case.

Turning to `COc1ccc2c(CC(=O)NCCN3C(=O)c4cccc5c(N(C)C)ccc(c45)C3=O)c(C)n(C(=O)c3ccc(Cl)cc3)c2c1`, the IC50 in the experiment on HCT-8, in the experiment with HeLa, with A549, in the experiment with P388, in the experiment with HL-60 and with MCF7 [1] was 13900 nM each time. Besides, in the experiment on A-375, the IC50 was determined as 13900 nM.

With `C[n+]1ccc(CCN2C(=O)c3cccc4c(N)ccc(c34)C2=O)cc1`, the values for the Kb at Salmon testes DNA, in the experiment listed under Homo sapiens [6] and in the experiment listed under Homo sapiens [7] were 1.38 10^5/M, 0.82 10^5/M and 5.15 10^5/M, respectively.

The values above are taken from ChEMBL document CHEMBL5244223, “l,8-Naphthalimide based DNA intercalators and anticancer agents. A systematic review from 2007 to 2017” (Eur J Med Chem, 2018).
